For this test, the system named is spiral strips of the pulmonary artery of the guinea-pig. The test is described as follows: Relaxation of potassium-depolarised, CaCl2-contracted spiral strips of the pulmonary artery of the guinea-pig (modified method of Godfraind and Kaba and of Schuman et al.). Conditions: depolarised with 40 mmol/1 potassium, contraction by 0.5 mmol/1 CaCl2; for IC50: Cavia porcellus, cumulative addition, average of 4 to 6 vessel strips, read-out: IC50 (concentration of the test substance which inhibits the contraction by 50%). The procedure:
The pharmacological action of the compounds of the formula I was determined by a modified method of Godfraind and Kaba (Arch. Int. Pharmacodyn. Ther. I96, (Suppl) 35 to 49, 1972) and of Schuman et al. (Naunyn-Schmiedeberg's Arch Pharmacol. 289, 409 to 418, 1975). In this connection, spiral strips of the pulmonary artery of the guinea-pig are depolarised with 40 mmol/1 of potassium after equilibration in calcium-free Tyrode solution. An addition of 0.5 mmol/1 of CaCl2 then induces a contraction. The relaxing action of the test substance is determined by cumulative addition in 1/2 log 10 stepped concentrations. From the concentration-effect curve (abscissa: -log mol/1 of test substance, ordinate: % inhibition of the maximum contraction, average value of 4 to 6 vessel strips), the concentration of the test substance is determined which inhibits the contraction by 50% (=IC50, mol/1). The duration of action of the test substance is given by the time which is needed after the addition of the test substance until the starting value is obtained again.

Consider `Cl.N=c1c[n+](N2CCC(C(=O)O)CC2)[n-]o1` [Example 2, 3-(4-Carboxypiperidino)sydnone imine hydrochloride], for which the IC50 was 24 µM and the “Duration of action in minutes (time needed after addition of the test substance until the starting value is obtained again)” value (“Duration of action in minutes” below) is above 300 min.

On to `Cl.N=c1c[n+](N2CCCCC2C(=O)O)[n-]o1` (stereo not drawn) [Example 1, 3-(2-Carboxypiperidino)sydnone imine hydrochloride], for which the IC50 was 6 µM and the “Duration of action in minutes” value was above 300 min.

`Cl.N=c1c[n+](N2CCC[C@H]2C(=O)O)[n-]o1` [Example 3, (S)-3-(2-Carboxypyrrolidino)sydnone imine hydrochloride]: the IC50 was 20 µM and the “Duration of action in minutes” value was above 300 min.

The values above are taken from US5204475A, “Substituted 3-aminosydnone imines and salts thereof” (Cassella Aktiengesellschaft, priority 1990, dated 1993).
